For series [1], the target named is T1, P2X purinoceptor 7 (Homo sapiens, UniProt Q99572).
T1 sequence (Q99572 whole entry): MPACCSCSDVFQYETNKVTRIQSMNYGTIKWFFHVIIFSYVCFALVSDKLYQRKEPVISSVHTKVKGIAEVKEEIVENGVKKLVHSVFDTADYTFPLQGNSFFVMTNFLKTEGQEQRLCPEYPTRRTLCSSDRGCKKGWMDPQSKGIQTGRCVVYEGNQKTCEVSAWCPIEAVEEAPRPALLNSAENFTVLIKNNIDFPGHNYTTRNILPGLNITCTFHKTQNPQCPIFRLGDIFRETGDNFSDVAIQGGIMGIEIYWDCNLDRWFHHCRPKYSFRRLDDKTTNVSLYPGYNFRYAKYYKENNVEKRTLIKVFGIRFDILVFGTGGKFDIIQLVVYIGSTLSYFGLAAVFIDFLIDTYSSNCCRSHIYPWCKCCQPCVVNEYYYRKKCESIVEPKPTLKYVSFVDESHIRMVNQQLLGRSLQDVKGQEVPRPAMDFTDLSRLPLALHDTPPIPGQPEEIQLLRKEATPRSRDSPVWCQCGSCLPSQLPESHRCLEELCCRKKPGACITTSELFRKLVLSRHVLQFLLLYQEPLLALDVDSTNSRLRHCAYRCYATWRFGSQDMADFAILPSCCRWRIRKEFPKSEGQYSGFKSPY
As to the kind of experiment: Inhibition of human P2X7 receptor assessed as inhibition of ethidium bromide accumulation.

Series [2] deals with T2, P2X purinoceptor 7 (Homo sapiens) (UniProt Q99572).
T2 sequence (whole entry): T1 sequence (Q99572 whole entry)
As to the kind of experiment: Inhibition of human P2X7 receptor assessed as inhibition of ethidium bromide accumulation relative to control.

Series [3] addresses T3, P2X purinoceptor 7 (Rattus norvegicus, UniProt Q64663).
T3 sequence (Q64663 whole entry): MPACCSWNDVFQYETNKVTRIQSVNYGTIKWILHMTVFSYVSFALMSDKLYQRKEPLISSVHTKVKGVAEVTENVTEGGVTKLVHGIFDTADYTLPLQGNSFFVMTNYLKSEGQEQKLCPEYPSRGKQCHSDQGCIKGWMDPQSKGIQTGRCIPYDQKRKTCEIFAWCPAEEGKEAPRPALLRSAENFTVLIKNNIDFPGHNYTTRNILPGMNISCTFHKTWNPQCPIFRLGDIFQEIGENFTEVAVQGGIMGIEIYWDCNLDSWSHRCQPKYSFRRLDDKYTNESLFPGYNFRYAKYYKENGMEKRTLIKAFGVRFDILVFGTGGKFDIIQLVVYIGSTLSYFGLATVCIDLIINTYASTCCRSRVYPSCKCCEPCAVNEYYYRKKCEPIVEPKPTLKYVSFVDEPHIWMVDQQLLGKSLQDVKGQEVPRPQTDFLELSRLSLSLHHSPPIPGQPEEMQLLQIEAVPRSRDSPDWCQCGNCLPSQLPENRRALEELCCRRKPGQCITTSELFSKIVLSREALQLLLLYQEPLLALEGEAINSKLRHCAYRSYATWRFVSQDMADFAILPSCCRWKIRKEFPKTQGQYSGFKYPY
As to the kind of experiment: Inhibition of rat P2X7 receptor assessed as inhibition of ethidium bromide accumulation.

The nature of series [4]: Aqueous solubility of the compound. It is filed as physicochemical.
A short description of series [5]: Clearance in rat blood at 1 mg/kg, iv. It is filed as ADME, organism-based. Further details: dose 1 mg/kg, route intravenous.
Series [6] in a line: Half life in rat blood at 1 mg/kg, iv. It is filed as ADME, organism-based. Also on record: dose 1 mg/kg, route intravenous.
Series [7] can be described thus: Volume of distribution at steady state in rat blood at 1 mg/kg, iv. It is filed as ADME, organism-based. Also on record: dose 1 mg/kg, route intravenous. The following applies: read-out: Vdss.
Series [8] can be described thus: Tmax in rat blood at 3 mg/kg, po. It is filed as ADME, organism-based. Further details: dose 3 mg/kg, route oral.
Series [9] is described as follows: Cmax in rat blood at 3 mg/kg, po. Further details: dose 3 mg/kg, route oral. It is filed as ADME, organism-based.
Another series deals with Rattus norvegicus. As to the kind of experiment: Dose normalized AUC in rat blood at 3 mg/kg, po. It is filed as ADME, organism-based. Conditions: in vivo. Also on record: dose 3 mg/kg, route oral.
Series [10] is described as follows: Oral bioavailability in rat blood at 3 mg/kg, po. It is filed as ADME, organism-based.

SMILES strings stand for the structures. pIC50: −log10 of the molar value. Converted amounts (≈) assume the structure as drawn.

One may read the pIC50 as the negative decadic logarithm of the IC50, by convention in mol/L. For the compound `COc1ccc(-n2nc(C)c(CC(=O)NCc3ccc(F)cc3Cl)c2C)cc1`, at P2X purinoceptor 7 [1], the pIC50 is 7.00. Further, in series [2], the Imax turned out to be 100%.

`Cc1c(CC(=O)NCc2ccc(F)cc2Cl)cnn1-c1ccccc1`: the pIC50 on P2X purinoceptor 7 [1] was 6.80. In addition, the Imax in series [2] was 100%.

Turning to `Cc1nn(-c2ccccc2)c(C)c1CC(=O)NC(C)(C)c1ccccc1`, the pIC50 on P2X purinoceptor 7 [1] was 6.90. Further, the Imax in series [2] came out at 100%.

Consider `Cc1oc(-c2ccccc2)nc1CC(=O)NCc1ccc(F)cc1Cl`, for which the pIC50 at P2X purinoceptor 7 [1] was under 6.00. Besides, in series [2], the Imax was 100%.

For `Cc1nn(-c2ccccc2)c(C)c1NC(=O)NCc1ccc(F)cc1Cl`, the pIC50 at P2X purinoceptor 7 [1] is 6.60. In addition, in [2], the Imax amounted to 100%.

As for `Cc1nn(-c2ncccn2)c(C)c1CC(=O)NCc1ccc(F)cc1Cl`, the pIC50 at P2X purinoceptor 7 [1] was 7.30. Besides, in [2], the Imax turned out to be 100%.

In the case of `Cc1nn(-c2ccc(C(N)=O)cc2)c(C)c1CC(=O)NCc1ccc(F)cc1Cl`, on P2X purinoceptor 7 [1], the pIC50 is 8.00. Also, the Imax in series [2] was 100%.

Turning to `Cc1nn(-c2ccccc2)c(C)c1CC(=O)NCc1cc(Cl)cc(Cl)c1`, the pIC50 on P2X purinoceptor 7 [1] is under 6.20. In addition, the Imax in series [2] was found to be 100%.

Turning to `Cc1nn(-c2ccccc2)c(C)c1CC(=O)NC1CCCCCC1`, at P2X purinoceptor 7 [1], the pIC50 is 6.80. Further, the Imax in series [2] was found to be 100%.

Take `Cc1nn(-c2ccccc2)c(C)c1CC(=O)NCc1ccccc1`: the pIC50 on P2X purinoceptor 7 [1] is under 6.00. In addition, the Imax in series [2] was determined as 100%.

`Cc1nc(-c2ccccc2)sc1CC(=O)NCc1ccc(F)cc1Cl`: the pIC50 on P2X purinoceptor 7 [1] was under 6.00. The Imax in [2] was 100%.

As to `O=C(CN1CC(=O)N(c2ccccc2)C1=O)NCc1ccc(F)cc1Cl`, the Imax in series [2] is 100%.

Consider `Cc1sc(-c2ccccc2)nc1CC(=O)NCc1ccc(F)cc1Cl`, for which the pIC50 on P2X purinoceptor 7 [1] was under 6.00. Moreover, the Imax in series [2] turned out to be 100%.

`Cc1nn(-c2ccc(Cl)cc2)c(C)c1CC(=O)NCc1ccc(F)cc1Cl`: on P2X purinoceptor 7 [1], the pIC50 is 7.20. The Imax in series [2] came out at 100%.

Take `Cc1nn(-c2ccccc2)c(C)c1CC(=O)NCc1ccc(Cl)cc1Cl`: the pIC50 on P2X purinoceptor 7 [1] was 7.10. In [2], the Imax came out at 100%.

As usually defined, the solubility is how much of the substance goes into solution per volume. Higher therefore signals a readily soluble substance. For `Cc1nn(-c2ccccc2)c(C)c1CC(=O)NCc1ccc(F)cc1Cl`, the results for the pIC50 at P2X purinoceptor 7 [1] and on P2X purinoceptor 7 [3] were 7.40 and 7.00, respectively. For the same compound, in series [4], the concentration in solution (solubility) came to 110 µg/mL (≈ 296 µM). For the same compound, in series [2], the Imax was 100%.

As to `Cc1nn(CCN(C)C)c(C)c1CC(=O)NCc1ccc(F)cc1Cl`, the pIC50 on P2X purinoceptor 7 [1] was 6.50. The Imax in series [2] stood at 100%.

Take `Cc1nn(-c2ccccc2)c(C)c1C(=O)NCc1ccc(F)cc1Cl`: the pIC50 on P2X purinoceptor 7 [1] is under 6.00. Besides, in series [2], the Imax came out at 100%.

Turning to `Cc1nn(-c2ccccc2)c(C)c1CNC(=O)Cc1ccc(F)cc1Cl`, the pIC50 at P2X purinoceptor 7 [1] was under 6.00. Further, in series [2], the Imax was 100%.

In the case of `Cc1nn(-c2ccccc2)cc1CC(=O)NCc1ccc(F)cc1Cl`, the pIC50 at P2X purinoceptor 7 [1] is 6.80. Besides, the Imax in [2] was 100%.

For `Cc1nn(-c2ccccc2)c(C)c1CC(=O)N(C)Cc1ccc(F)cc1Cl`, the pIC50 on P2X purinoceptor 7 [1] is under 6.00. Also, the Imax in series [2] was 100%.

For `Cc1nn(Cc2ccccc2)c(C)c1CC(=O)NCc1ccc(F)cc1Cl`, the pIC50 at P2X purinoceptor 7 [1] was 6.50. For the same compound, in series [2], the Imax was 100%.

Take `Cc1cccnc1CNC(=O)Cc1c(C)nn(-c2ccccc2)c1C`: on P2X purinoceptor 7 [1], the pIC50 was under 6.00. Besides, in series [2], the Imax turned out to be 100%.

For `Cc1nc(-c2ccccc2)n(C)c1CC(=O)NCc1ccc(F)cc1Cl`, on P2X purinoceptor 7 [1], the pIC50 was 7.30. Further, the Imax in [2] worked out at 100%.

What is called clearance is the rate of elimination divided by the concentration. A lower clearance goes with inefficient removal. A word on the half-life: it is the time in which the quantity being followed falls by half. Low readings indicate rapid decline, high ones slow decline. As usually defined, the Tmax is the time at which the peak concentration occurs. A word on the Cmax: it is the maximum level reached in the sampled fluid or tissue. Broadly, the bioavailability is the share of a dose that reaches the circulation, judged against a reference dose that is usually intravenous. Read a high bioavailability as much systemic uptake. For `Cc1n[nH]c(C)c1CC(=O)NCc1ccc(F)cc1Cl`, the pIC50 is 7.70 at P2X purinoceptor 7 [1] and 6.80 on P2X purinoceptor 7 [3]. The same compound had a clearance in series [5] of 15 mL/min/kg. Moreover, in series [6], the half-life is 1.7 h. Moreover, in series [7], the Vd was 1.6 L/kg. Also, in [8], the Tmax was found to be 1 h. The compound further had a Cmax in series [9] of 2920 nM. In the series with Rattus norvegicus, this compound yielded an AUC of 58 kg·min/L. Further, the bioavailability in [10] stood at 90%. The solubility in [4] amounted to 732 µg/mL (≈ 2480 µM). Further, the Imax in [2] was 100%.

On to `Cc1nn(-c2ccccc2)c(C)c1Cc1nnc(Cc2ccc(Cl)cc2Cl)o1`, for which the pIC50 on P2X purinoceptor 7 [1] is 5.90. Moreover, the Imax in [2] is 100%.

For the compound `Cc1nn(C)c(C)c1CC(=O)NCc1ccc(F)cc1Cl`, the pIC50 at P2X purinoceptor 7 [1] is 6.80. Moreover, the Imax in [2] was 100%.

In the case of `COc1ccccc1CNC(=O)Cc1c(C)nn(-c2ccccc2)c1C`, the pIC50 on P2X purinoceptor 7 [1] was under 6.00. Moreover, the Imax in series [2] amounted to 100%.

For `Cc1nn(-c2ccccc2)c(C)c1CC(=O)NCc1ccccc1Cl`, the pIC50 at P2X purinoceptor 7 [1] was 6.00. In series [2], the Imax worked out at 100%.

Regarding `Cc1nn(CCO)c(C)c1CC(=O)NCc1ccc(F)cc1Cl`, at P2X purinoceptor 7 [1], the pIC50 was 6.70. In addition, the Imax in series [2] was 100%.

As to `Cc1nn(Cc2cccnc2)c(C)c1CC(=O)NCc1ccc(F)cc1Cl`, the pIC50 on P2X purinoceptor 7 [1] is 6.90. The Imax in [2] worked out at 100%.

As to `Cc1nn(-c2ccccc2)c(C)c1CC(=O)NCc1cccc(Cl)c1Cl`, the pIC50 on P2X purinoceptor 7 [1] was 7.60. Also, the Imax in series [2] was 100%.

These data come from ChEMBL document CHEMBL1157114, “Synthesis and structure-activity relationships of a series of (1H-pyrazol-4-yl)acetamide antagonists of the P2X7 receptor” (Bioorg Med Chem Lett, 2010).
